Laboratory results from patent publication US5625043A, “Anthracyclines with unusually high activity against cells resistant to doxorubicin and its analogs” (Priebe; Waldemar, priority 1995, dated 1997).
≈ marks a conversion by molar mass, not a printed value. Entries after “also recorded” stand apart in the source; their conditions may differ. Read-outs that look alike come from different tables or passages of the source.

Columns and labels:
[1] = tested on: J7/40V cells; test: Cytotoxicity against vinblastine-resistant J7/40V cells; assay type: cell-based, murine; conditions: for RI J7/40V: J7/40V versus J774.2; for IC50: Mus musculus; for cytotoxicity (in words): vinblastine-resistant
[2] = cited from earlier work
[3] = tested on: KB 3-1 cells; test: MTT cytotoxicity assay, DOX-sensitive KB 3-1 cells; assay type: cell-based; conditions: Homo sapiens
Description: An MTT assay was performed to determine the cytotoxicity of DOX, WP 546, and WP 549 to KB 3-1 (DOX-sensitive) and KB V1 (DOX-resistant) cells. The assay was performed as follows:
(§1) Doxorubicin was obtained from the Hospital Pharmacy (Adriamycin, Adria Laboratories, Columbus, Ohio). KB 3-1 human carcinoma and KB V1 were obtained from Dr. Michael M. Gottesman at the National Cancer Institute. KB V1 cells have the MDR phenotype and express glycoprotein P-170 in their membrane (Akiyama et al., Somat. Cell. Mol. Genet., 11:117, 1985; Shen et al., J. Biol. Chem., 261:7762, 1986.). KB 3-1 and KB V1 cells were grown in monolayers in Dulbecco's modified Eagle's medium containing 10% fetal bovine serum. For KB V1 cells, vinblastine was added to the culture medium (final concentration 0.5 μg/ml).
(§2) In vitro drug cytotoxicites against KB 3-1 and KB V1 cells were assessed by using the MTT reduction assay, as previously reported (Green et al., J. Immunol. Methods., 70:257, 1984). The MTT dye was obtained from Sigma Chemical Company, St. Louis, Mo. Cells were plated in 96-well microassay culture plates (10^4 cells/well) and grown for 24 h at 37° C. in a 5% CO2 incubator. Drugs were then added to the wells to achieve a final drug concentration ranging from 0.1 to 50 μg/ml (eight wells were used for each different concentration). The same volume of 0.9% NaCl solution in water with 1% DMSO was added to control wells. Wells containing culture medium alone without cells were used as blanks. The plates were incubated at 37° C. in a 5% CO2 incubator for 1 h (KB cells). When incubation was complete, 15 μl of stock solution of MTT dye in 0.9% NaCl solution in water was added to each well to achieve a final dye concentration of 0.5 mg/ml. […] The optical density of each well was then measured with a microplate spectrophotometer at a wavelength of 600 nm. The percent cell viability was calculated by the following equation: [formula]
(§3) The percent cell viability values obtained were plotted against the drug concentrations used, and the ID50 was calculated from the curve. […]

[4] = tested on: J774.2 cells; test: Cytotoxicity against J774.2 cells; assay type: cell-based, murine; conditions: for IC50: Mus musculus
[5] = versus same dose by bolus injections; cited from earlier work
[6] = tested on: J7/A300 cells; test: Cytotoxicity against AD 198-resistant J7/A300 cells; assay type: cell-based, murine; conditions: for RI J7/A300: J7/A300 versus J774.2; for IC50: Mus musculus; for cytotoxicity (in words): J7/A300, AD 198-resistant
[7] = tested on: KB V1 cells; test: MTT cytotoxicity assay, DOX-resistant (MDR) KB V1 cells; assay type: cell-based, human; conditions: for IC50: Homo sapiens; for RI (ID50 KB V1/ID50 KB 3-1): KB V1 versus KB 3-1; for cytotoxicity (in words): KB V1 (MDR, DOX-resistant)
Description: The assay was performed as follows:
as §1, with “KB V1 cells have the MDR phenotype and express glycoprotein P-170 in their membrane (Akiyama et al., Somat. Cell. Mol. Genet., 11:117, 1985; Shen et al., J. Biol. Chem., 261:7762, 1986.).” left out
The MTT dye was obtained from Sigma Chemical Company, St. Louis, Mo. Cells were plated in 96-well microassay culture plates (10^4 cells/well) and grown for 24 h at 37° C. in a 5% CO2 incubator. Drugs were then added to the wells to achieve a final drug concentration ranging from 0.1 to 50 μg/ml (eight wells were used for each different concentration). The same volume of 0.9% NaCl solution in water with 1% DMSO was added to control wells. Wells containing culture medium alone without cells were used as blanks. The plates were incubated at 37° C. in a 5% CO2 incubator for 1 h (KB cells). When incubation was complete, 15 μl of stock solution of MTT dye in 0.9% NaCl solution in water was added to each well to achieve a final dye concentration of 0.5 mg/ml. The plate was incubated at 37° C. in a 5% CO2 incubator for 4 h. […] Complete solubilization was achieved by placing the plate in a mechanical shaker for 30 minutes at room temperature. The optical density of each well was then measured with a microplate spectrophotometer at a wavelength of 600 nm. The percent cell viability was calculated by the following equation: [formula]
(§4) The percent cell viability values obtained were plotted against the drug concentrations used, and the ID50 was calculated from the curve. Experiments were repeated at least three time.

[8] = tested on: P388 (R) cells; test: MTT cytotoxicity assay, AD 198-resistant P388 (R) cells; assay type: cell-based, murine; conditions: for IC50: Mus musculus, P388 (R), ± S.E., read-out: ID50 (the source's name); for RI: P388 (R) versus P388 (S); for cytotoxicity (in words): P388 AD 198-resistant
Description: In vitro drug cytotoxicites against KB 3-1 and KB V1 cells were assessed by using the MTT reduction assay, as previously reported (Green et al., J. Immunol. Methods., 70:257, 1984). The MTT dye was obtained from Sigma Chemical Company, St. Louis, Mo. Cells were plated in 96-well microassay culture plates (10^4 cells/well) and grown for 24 h at 37° C. in a 5% CO2 incubator. Drugs were then added to the wells to achieve a final drug concentration ranging from 0.1 to 50 μg/ml (eight wells were used for each different concentration). The same volume of 0.9% NaCl solution in water with 1% DMSO was added to control wells. Wells containing culture medium alone without cells were used as blanks. The plates were incubated at 37° C. in a 5% CO2 incubator for 1 h (KB cells). When incubation was complete, 15 μl of stock solution of MTT dye in 0.9% NaCl solution in water was added to each well to achieve a final dye concentration of 0.5 mg/ml. The plate was incubated at 37° C. in a 5% CO2 incubator for 4 h. Subsequently, 100 μl of medium was removed from each well from the upper ]K<id,KD layer, and 100 μl of DMSO was added to solubilize the MTT formazan. Complete solubilization was achieved by placing the plate in a mechanical shaker for 30 minutes at room temperature. The optical density of each well was then measured with a microplate spectrophotometer at a wavelength of 600 nm. The percent cell viability was calculated by the following equation: [formula]
as §4
An MTT assay to determine the cytotoxicity of WP 546 and WP 549 to AD 198-resistant {P 388 (R)} and AD 198-sensitive {P388 (S)} cells was performed in a manner similar to that described above.

[9] = tested on: tumor cells resistant to doxorubicin, AD 198, and vinblastine; test: Cytotoxicity against drug-resistant tumor cells (general statement); assay type: cell-based
[10] = tested on: P388 (S) cells; test: MTT cytotoxicity assay, AD 198-sensitive P388 (S) cells; assay type: cell-based, murine; conditions: Mus musculus, ± S.E., read-out: ID50 (the source's name)
Description: as §2, with “mg/ml. The plate was incubated at 37° C. in a 5% CO2 incubator for 4 h.” for “mg/ml.”
as §3

[11] = J7/40V, read-out: ID50 (the source's name)
[12] = KB 3-1 (S), MTT, 1 h drug incubation, read-out: ID50 (the source's name)
[13] = J774.2, read-out: ID50 (the source's name)
[14] = J7/A300, read-out: ID50 (the source's name)
[15] = KB V1 (R), MTT, 1 h drug incubation, read-out: ID50 (the source's name)

SMILES	RI J7/40V [1]	RI J7/A300 [6]	RI (ID50 KB V1/ID50 KB 3-1) [7]	IC50 [8] [nM]	RI [8]	cytotoxicity (in words) [8]	cytotoxicity (in words) ([1]; J7/40V)	IC50 [1, 11] [nM]	IC50 [3, 12] [µg/mL]	cytotoxicity (in words) [9]	cytotoxicity (in words) ([4]; J774.2)	IC50 [4, 13] [nM]	cytotoxicity (in words) [6]	IC50 [6, 14] [nM]	IC50 [10] [nM]	IC50 [7, 15] [µg/mL]	cytotoxicity (in words) [7]	other results
COc1cccc2c1C(=O)c1c(O)c3c(c(O)c1C2=O)C[C@@](O)(C(=O)CO)C[C@@H]3O[C@H]1C[C@H](N)[C@H](O)[C@H](C)O1 [Doxorubicin, doxorubicin]	31	24	58.2															IC50 ([1]; read-out: ID50): 755 nM; adverse systemic effects ([2]; in vivo): acute myelosuppression, cumulative cardiotoxicity, and gastrointestinal toxicity; cardiomyopathy ([2]; related to total dose): unusual cardiomyopathy, the occurrence of which is related to the total dose of the drug; it is often irreversible; IC50 ([3]; KB 3-1, 1 h, read-out: ID50): 1.1 µg/mL (≈ 2.02 µM); IC50 ([4]; J774.2, read-out: ID50): 24 nM; efficacy of 96-hr continuous infusion [5]: as effective as; toxicity of 96-hr continuous infusion [5]: much less toxic; IC50 ([6]; read-out: ID50): 586 nM; IC50 ([7]; KB-V1, 1 h, read-out: ID50): 64 µg/mL (≈ 118 µM)
COc1cccc2c1C(=O)c1c(O)c3c(c(O)c1C2=O)C[C@@](O)(C(=O)CO)C[C@@H]3O[C@H]1C[C@H](OCc2ccccc2)[C@H](O)[C@H](C)O1 [WP 546, 7-O-(3-O-benzyl-2,6-dideoxy-α-L-lyxo-hexopyranosyl)adriamycinone]	2.2	2.2	0.9	690 ± 230	0.8	more cytotoxic towards cells selected for the resistance than that of a wild type; also recorded: demonstrated cytotoxicity	shown to have cytotoxic effects	2350	4.6 (≈ 7.25 µM)	surprisingly broad cytotoxicity; also recorded: unexpected cytotoxic activity; also recorded: very high cytotoxicity	shown to kill KB V1 cells and J774.2 cells	1100	demonstrated cytotoxicity	2430	920 ± 360	4.1 (≈ 6.46 µM)	unexpectedly more cytotoxic against MDR cells than against parent cells; also recorded: ability to kill DOX-resistant and vinblastine resistant cells; also recorded: shown to kill KB V1 cells	cytotoxicity (in words) ([9]; listed as 3'-O-benzyl-doxorubicin): surprisingly similar in DOX-sensitive and DOX-resistant cell lines
COc1cccc2c1C(=O)c1c(O)c3c(c(O)c1C2=O)C[C@@](O)(C(C)=O)C[C@@H]3O[C@H]1C[C@H](N)[C@H](O)[C@H](C)O1 [daunorubicin]																		cardiomyopathy ([2]; in vivo): unusual cardiomyopathy, the occurrence of which is related to the total dose of the drug; it is often irreversible
CCCCC(=O)OCC(=O)[C@]1(O)Cc2c(O)c3c(c(O)c2[C@@H](O[C@H]2C[C@H](OCc4ccccc4)[C@H](O)[C@H](C)O2)C1)C(=O)c1c(OC)cccc1C3=O [WP 549, 7-O-(3-O-benzyl-2,6-dideoxy-α-L-lyxo-hexopyranosyl)-14-O-valeroyl-adriamycinone]	2.3	1.9	0.5	730 ± 80	0.5	more cytotoxic towards cells selected for the resistance than that of a wild type; also recorded: demonstrated cytotoxicity	shown to have cytotoxic effects	3150	8.9 (≈ 12.4 µM)	surprisingly broad cytotoxicity; also recorded: unexpected cytotoxic activity; also recorded: very high cytotoxicity	shown to kill KB V1 cells and J774.2 cells	1430	demonstrated cytotoxicity	2770	1410 ± 230	4.7 (≈ 6.54 µM)	unexpectedly more cytotoxic against MDR cells than against parent cells; also recorded: ability to kill DOX-resistant and vinblastine resistant cells; also recorded: shown to kill KB V1 cells	
CC[C@]1(O)C[C@@H]2CN(CCc3c([nH]c4ccccc34)[C@@](C(=O)OC)(c3cc4c(cc3OC)N(C)[C@H]3[C@@](O)(C(=O)OC)[C@H](OC(C)=O)[C@]5(CC)C=CCN6CC[C@]43[C@@H]65)C2)C1 [vinblastine, reference compound]																		resistance of cell line to the selecting drug ([1]; J7/40V selected for resistance to vinblastine): 120 -fold
